Read-outs that look alike come from different tables or passages of the source.
Columns and labels:
C2C12 myotubes = experiment: Insulin signaling in C2C12 myotubes; type: cell-based; details: 1 hour pretreatment, 100 nM insulin 30 min
Experimental: (§1) Cell lysate (20 μg protein) was subjected to 10% SDS-PAGE and probed with phospho-Akt, phospho-IR (Y1162/1163) or Akt antibody, respectively. […] Cell lysate (20 μg protein) was subjected to 10% SDS-PAGE and probed with phospho-IR(Y1162/1163), phospho-Akt (pS473) or total Akt antibody, respectively. […] Cell lysate (20 μg protein) or insulin receptor immunoprecipitation beads were subjected to 10% SDS-PAGE and probed with phospho-Akt, Akt, insulin receptor beta or phospho-tyrosine antibody (4G10), respectively. The non-specific band from insulin receptor immunoprecipitates served as a loading control for insulin receptor and phospho-insulin receptor.
(§2) Western blot analysis. Cells were homogenized in the lysis buffer (50 mM Hepes, pH 7.5, 150 mM NaCl, 10% Glycerol, 1% Triton X-100, 1.5 mM MgCl2, 1 mM EGTA, 10 μM Sodium Pyrophosphate, 100 mM sodium fluoride and freshly added 100 μM sodium vanadate, 1 mM PMSF, 10 μg/ml Aprotinin, and 10 μg/mL Leupeptin). Protein extracts were resolved on an SDS-PAGE gel and transferred to nitrocellulose membrane. […] Protein signals were detected by incubation with HRP-conjugated secondary antibodies, followed by ECL detection reagent (Pierce). Western blots were scanned and quantified using the Quantity One software (Bio-Rad).

VHR = VHR (Homo sapiens (Human), UniProt P51452); experiment: pNPP hydrolysis enzyme assay, VHR; type: biochemical
Chain of VHR (P51452 whole entry, species assumed): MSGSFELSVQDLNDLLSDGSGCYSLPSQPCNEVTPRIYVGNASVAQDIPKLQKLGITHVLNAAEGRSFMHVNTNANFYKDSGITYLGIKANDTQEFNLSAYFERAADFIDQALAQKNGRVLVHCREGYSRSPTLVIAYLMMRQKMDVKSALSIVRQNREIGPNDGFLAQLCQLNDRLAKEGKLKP
Experimental: (§3) Enzyme kinetic assay. PTP activity was assayed using p-nitrophenyl phosphate (pNPP) as a substrate in 3,3-dimethylglutarate buffer (50 mM 3,3-dimethylglutarate, pH 7.0, 1 mM EDTA, 150 mM NaCl, 2 mM DTT, 0.1 mg/mL BSA) at 25° C. The assays were performed in 96-well plates. Normally, to determine the IC50 values, the reaction was initiated by the addition of enzyme (final concentration at 10 nM) to a reaction mixture (0.2 mL) containing 2 mM (Km for the substrate) pNPP with various concentrations of inhibitors. The reaction rate was measured using a SpectraMax Plus 384 Microplate Spectrophotometer (Molecular Devices). To determine the mode of inhibition, the reactions were initiated by the addition of PTP-MEG2 to the reaction mixtures (0.2 mL) containing various concentrations of pNPP with different concentrations of the inhibitor 7. Data were fitted using SigmaPlot Enzyme Kinetics Module (Systat Software, Inc.).

PTPH1 = PTPH1 (Homo sapiens (Human), UniProt P26045); experiment: pNPP hydrolysis enzyme assay, PTPH1; type: biochemical
Experimental: as §3

PTPγ = PTPγ (Homo sapiens (Human), UniProt P23470); experiment: pNPP hydrolysis enzyme assay, PTPγ; type: biochemical
Experimental: as §3

SHP2 = SHP2 (Homo sapiens (Human), UniProt Q06124); experiment: pNPP hydrolysis enzyme assay, SHP2; type: biochemical
Experimental: as §3

TC-PTP = TC-PTP (Homo sapiens (Human), UniProt P17706); experiment: pNPP hydrolysis enzyme assay, TC-PTP; type: biochemical; details: for IC50: pNPP substrate
Chain of TC-PTP (P17706 whole entry, looked up, species assumed): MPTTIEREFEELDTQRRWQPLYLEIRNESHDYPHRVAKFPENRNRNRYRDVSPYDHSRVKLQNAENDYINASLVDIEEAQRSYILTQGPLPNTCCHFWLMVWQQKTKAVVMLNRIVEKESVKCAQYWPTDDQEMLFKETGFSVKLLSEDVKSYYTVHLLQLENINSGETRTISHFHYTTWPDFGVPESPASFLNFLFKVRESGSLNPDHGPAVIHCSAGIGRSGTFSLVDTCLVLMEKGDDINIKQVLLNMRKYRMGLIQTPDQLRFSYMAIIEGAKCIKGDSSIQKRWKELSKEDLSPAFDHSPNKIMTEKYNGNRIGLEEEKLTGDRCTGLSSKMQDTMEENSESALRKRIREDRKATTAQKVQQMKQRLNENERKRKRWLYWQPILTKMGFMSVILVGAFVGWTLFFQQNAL
Experimental: as §3

[1] = system: diet-induced obese C57BL/6 mice; experiment: Pyruvate tolerance test in diet-induced obese mice; type: in vivo, mouse; details: 5 mg/kg i.p. twice a day
Experimental: (§4) C57BL/6J mice were fed a high-fat diet for 10 weeks before Compound 7 or vehicle was injected intraperitoneally twice a day at a dose of 5 mg/kg body weight. FIG. 5A depicts insulin tolerance tests (ITT) performed on Day 7 by injecting intraperitoneally a bolus of 0.75 unit/kg of human regular insulin. […] FIG. 5C depicts glucose tolerance tests (GTT) carried out on Day 9 after a bolus of 1 g/kg glucose was injected intraperitoneally. […] FIG. 5E depicts pyruvate tolerance tests (PTT) performed on Day 12 after an injection of 2 g/kg pyruvate solution. […] At the end of 2-week injections of Compound 7, animals were fasted overnight and stimulated with a bolus of 1 unit of human regular insulin or saline via vena cava. Three minutes later, liver, skeletal muscle, and white adipose tissue (WAT) were collected sequentially for insulin signaling analysis. FIG. 5G depicts the phosphorylation of Tyr1162/1163 in insulin receptor (IR) and Ser473 phosphorylation in Akt kinases and the corresponding proteins in the liver, skeletal muscle, and white adipose tissue (WAT) were analyzed by immunoblots.
(§5) To this end, we intraperitoneally injected Compound 7 into diet-induced obese C57BL/6 mice at a dose of 5 mg/kg twice a day. […] After 7 days of injections, we performed insulin tolerance tests to measure insulin sensitivity in vehicle and Compound 7 treated mice.

DEP1 = DEP1 (Homo sapiens (Human), UniProt Q12913); experiment: pNPP hydrolysis enzyme assay, DEP1; type: biochemical
Chain of DEP1 (Q12913 36-1337, species assumed): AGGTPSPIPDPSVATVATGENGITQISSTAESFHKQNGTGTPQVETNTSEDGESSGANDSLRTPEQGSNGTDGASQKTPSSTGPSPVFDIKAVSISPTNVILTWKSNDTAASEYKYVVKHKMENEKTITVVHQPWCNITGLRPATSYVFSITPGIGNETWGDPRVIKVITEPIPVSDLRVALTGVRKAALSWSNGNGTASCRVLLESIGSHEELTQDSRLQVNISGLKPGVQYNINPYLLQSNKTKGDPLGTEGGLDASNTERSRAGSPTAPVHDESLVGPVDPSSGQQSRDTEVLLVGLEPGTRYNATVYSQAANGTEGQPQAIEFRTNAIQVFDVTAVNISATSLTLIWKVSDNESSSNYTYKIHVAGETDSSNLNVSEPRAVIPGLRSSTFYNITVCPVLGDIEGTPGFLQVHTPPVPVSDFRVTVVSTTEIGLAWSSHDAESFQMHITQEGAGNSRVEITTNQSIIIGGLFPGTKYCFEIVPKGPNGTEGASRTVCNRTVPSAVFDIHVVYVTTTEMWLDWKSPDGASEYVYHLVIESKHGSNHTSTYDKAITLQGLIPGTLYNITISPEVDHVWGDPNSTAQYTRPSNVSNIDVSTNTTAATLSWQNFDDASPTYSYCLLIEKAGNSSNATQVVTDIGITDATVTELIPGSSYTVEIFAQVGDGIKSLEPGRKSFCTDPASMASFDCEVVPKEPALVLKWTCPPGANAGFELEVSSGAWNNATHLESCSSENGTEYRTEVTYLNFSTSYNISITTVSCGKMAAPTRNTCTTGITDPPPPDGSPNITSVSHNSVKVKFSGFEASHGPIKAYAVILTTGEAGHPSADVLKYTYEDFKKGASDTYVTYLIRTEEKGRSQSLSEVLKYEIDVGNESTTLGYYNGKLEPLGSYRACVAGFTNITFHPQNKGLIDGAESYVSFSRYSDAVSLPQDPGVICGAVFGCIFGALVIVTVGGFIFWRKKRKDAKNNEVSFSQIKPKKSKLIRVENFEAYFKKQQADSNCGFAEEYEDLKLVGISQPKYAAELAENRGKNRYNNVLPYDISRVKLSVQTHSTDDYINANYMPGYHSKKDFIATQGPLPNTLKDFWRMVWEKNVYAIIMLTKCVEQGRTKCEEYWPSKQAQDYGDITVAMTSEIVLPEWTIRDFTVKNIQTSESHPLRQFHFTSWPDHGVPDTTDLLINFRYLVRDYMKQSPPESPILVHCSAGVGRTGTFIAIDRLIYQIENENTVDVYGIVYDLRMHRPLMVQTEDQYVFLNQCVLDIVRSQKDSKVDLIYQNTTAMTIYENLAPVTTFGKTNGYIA
Experimental: as §3

PTPβ = PTPβ (Homo sapiens, UniProt P23467); experiment: pNPP hydrolysis enzyme assay, PTPβ; type: biochemical
Chain of PTPβ (P23467 23-1997 limits assumed): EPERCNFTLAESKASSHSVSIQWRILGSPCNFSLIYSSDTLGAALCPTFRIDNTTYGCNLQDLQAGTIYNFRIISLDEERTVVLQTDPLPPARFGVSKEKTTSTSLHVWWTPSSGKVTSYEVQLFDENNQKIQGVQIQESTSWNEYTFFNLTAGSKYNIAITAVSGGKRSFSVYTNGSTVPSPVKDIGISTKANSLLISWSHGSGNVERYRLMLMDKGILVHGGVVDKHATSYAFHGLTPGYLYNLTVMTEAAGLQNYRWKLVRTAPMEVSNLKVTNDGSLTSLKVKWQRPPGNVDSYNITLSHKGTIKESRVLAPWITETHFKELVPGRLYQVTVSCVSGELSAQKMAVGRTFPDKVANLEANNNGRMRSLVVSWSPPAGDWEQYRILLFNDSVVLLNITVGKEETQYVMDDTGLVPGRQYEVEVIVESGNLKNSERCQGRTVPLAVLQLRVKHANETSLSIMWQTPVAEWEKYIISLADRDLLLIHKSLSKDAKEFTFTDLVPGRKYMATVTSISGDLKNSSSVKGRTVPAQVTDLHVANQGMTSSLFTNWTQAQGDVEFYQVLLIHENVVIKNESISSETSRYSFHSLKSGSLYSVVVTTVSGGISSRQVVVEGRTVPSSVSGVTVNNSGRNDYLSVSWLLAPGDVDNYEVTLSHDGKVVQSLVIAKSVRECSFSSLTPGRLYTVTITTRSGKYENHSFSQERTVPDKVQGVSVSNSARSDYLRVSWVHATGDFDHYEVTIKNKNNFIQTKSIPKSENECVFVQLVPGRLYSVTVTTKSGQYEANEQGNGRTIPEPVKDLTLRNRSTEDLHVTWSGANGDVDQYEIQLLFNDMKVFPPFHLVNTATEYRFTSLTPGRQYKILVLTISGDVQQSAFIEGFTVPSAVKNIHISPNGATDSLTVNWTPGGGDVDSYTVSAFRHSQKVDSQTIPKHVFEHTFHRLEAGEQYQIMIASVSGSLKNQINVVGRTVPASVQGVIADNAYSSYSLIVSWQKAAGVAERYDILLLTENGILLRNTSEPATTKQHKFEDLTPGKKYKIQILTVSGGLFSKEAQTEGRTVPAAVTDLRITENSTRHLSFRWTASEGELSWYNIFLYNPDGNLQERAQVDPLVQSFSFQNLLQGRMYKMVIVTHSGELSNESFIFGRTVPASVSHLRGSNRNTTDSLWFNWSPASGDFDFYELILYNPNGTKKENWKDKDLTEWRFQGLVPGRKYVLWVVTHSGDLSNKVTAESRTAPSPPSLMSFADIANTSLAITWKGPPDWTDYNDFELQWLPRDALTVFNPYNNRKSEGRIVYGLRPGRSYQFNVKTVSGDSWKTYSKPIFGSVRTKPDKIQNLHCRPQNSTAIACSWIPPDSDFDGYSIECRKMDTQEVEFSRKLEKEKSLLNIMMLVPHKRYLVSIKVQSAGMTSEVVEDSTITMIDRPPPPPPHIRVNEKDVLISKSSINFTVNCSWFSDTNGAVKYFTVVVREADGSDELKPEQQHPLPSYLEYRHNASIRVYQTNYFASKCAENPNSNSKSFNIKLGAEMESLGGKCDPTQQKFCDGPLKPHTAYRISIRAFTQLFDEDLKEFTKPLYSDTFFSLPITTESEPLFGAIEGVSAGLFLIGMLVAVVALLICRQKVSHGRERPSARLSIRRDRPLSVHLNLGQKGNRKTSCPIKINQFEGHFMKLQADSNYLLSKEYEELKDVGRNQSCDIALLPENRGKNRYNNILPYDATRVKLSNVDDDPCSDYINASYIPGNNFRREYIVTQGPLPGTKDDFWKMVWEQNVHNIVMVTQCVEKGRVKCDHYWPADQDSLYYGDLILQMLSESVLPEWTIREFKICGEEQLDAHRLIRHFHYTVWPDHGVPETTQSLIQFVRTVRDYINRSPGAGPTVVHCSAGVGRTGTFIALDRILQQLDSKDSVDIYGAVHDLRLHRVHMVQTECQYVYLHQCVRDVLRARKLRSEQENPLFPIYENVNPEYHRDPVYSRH
Experimental: as §3

PTP-MEG1 = PTP-MEG1 (Homo sapiens (Human), UniProt P29074); experiment: pNPP hydrolysis enzyme assay, PTP-MEG1; type: biochemical
Chain of PTP-MEG1 (P29074 whole entry): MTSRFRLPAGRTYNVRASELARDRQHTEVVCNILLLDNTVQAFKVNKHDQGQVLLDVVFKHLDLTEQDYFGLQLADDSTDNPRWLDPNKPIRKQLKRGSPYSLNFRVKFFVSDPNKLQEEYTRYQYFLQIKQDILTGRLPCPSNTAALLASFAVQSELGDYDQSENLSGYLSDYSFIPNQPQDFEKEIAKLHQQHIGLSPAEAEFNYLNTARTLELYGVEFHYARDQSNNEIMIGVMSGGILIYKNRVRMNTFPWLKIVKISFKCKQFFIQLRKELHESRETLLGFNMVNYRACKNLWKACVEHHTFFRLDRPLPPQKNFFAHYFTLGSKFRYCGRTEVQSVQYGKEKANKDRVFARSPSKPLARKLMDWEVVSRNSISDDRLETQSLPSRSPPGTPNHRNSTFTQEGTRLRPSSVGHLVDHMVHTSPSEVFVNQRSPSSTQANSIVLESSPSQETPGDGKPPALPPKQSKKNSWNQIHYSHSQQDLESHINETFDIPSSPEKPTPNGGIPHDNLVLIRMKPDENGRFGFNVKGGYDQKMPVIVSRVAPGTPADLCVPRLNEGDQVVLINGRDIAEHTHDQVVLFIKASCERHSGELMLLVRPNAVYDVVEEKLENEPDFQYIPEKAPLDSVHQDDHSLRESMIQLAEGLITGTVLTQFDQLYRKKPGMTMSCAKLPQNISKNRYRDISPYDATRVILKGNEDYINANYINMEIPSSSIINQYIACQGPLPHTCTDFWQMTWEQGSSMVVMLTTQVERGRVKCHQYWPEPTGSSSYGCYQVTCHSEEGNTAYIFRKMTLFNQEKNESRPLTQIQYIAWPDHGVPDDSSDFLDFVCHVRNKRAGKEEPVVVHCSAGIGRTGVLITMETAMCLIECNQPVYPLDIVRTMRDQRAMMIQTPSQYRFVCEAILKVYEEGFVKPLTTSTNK
Experimental: as §3

VHX = VHX (Homo sapiens (Human), UniProt Q9NRW4); experiment: pNPP hydrolysis enzyme assay, VHX; type: biochemical
Chain of VHX (Q9NRW4 whole entry): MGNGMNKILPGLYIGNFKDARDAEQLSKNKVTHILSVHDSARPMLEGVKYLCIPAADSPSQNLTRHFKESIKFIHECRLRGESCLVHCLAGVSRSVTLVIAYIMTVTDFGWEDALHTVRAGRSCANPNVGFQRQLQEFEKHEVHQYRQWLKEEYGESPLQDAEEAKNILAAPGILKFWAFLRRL
Experimental: as §3

LAR = LAR (Homo sapiens (Human), UniProt P10586); experiment: pNPP hydrolysis enzyme assay, LAR; type: biochemical
Experimental: as §3

[2] = system: diet-induced obese C57BL/6 mice; experiment: Glucose tolerance test in diet-induced obese mice; details: 5 mg/kg i.p. twice a day
Experimental: as §4, §5

HepG2 hepatocytes = experiment: Insulin signaling in HepG2 hepatocytes; type: cell-based; details: HepG2, 1 hour pretreatment, 10 nM insulin 30 min
Experimental: as §1, §2

COc1cc(CC(=O)NCC(NC(=O)C(CCCNC(=O)c2cccc(I)c2)NC(=O)C(Cc2ccc(C(F)(F)P(=O)(O)O)cc2)NC(=O)c2ccc(C)c(Br)c2)C(N)=O)ccc1O (stereo not drawn) [Compound 7]
insulin signaling (phospho-Akt, phospho-IR) (C2C12 myotubes): augmented insulin signaling
IC50 (VHR): > 10000 nM
IC50 (PTPH1): > 10000 nM
IC50 (PTPγ): > 10000 nM
IC50 (SHP2): > 10000 nM
IC50 (TC-PTP; read-out: IC50 (nM) TC-PTP): 830 nM
IC50 (TC-PTP; read-out: IC50 for TC-PTP): 830 nM
selectivity for PTP-MEG2 over TC-PTP (TC-PTP; ratio of IC50 values): more than 10 fold
hepatic gluconeogenesis in pyruvate tolerance test ([1]; Day 12): significant suppression of hepatic gluconeogenesis
better pyruvate tolerance (AUC) ([1]; Day 12, vs vehicle): 25%
IC50 (DEP1): > 10000 nM
IC50 (PTPβ): > 10000 nM
IC50 (PTP-MEG1): > 10000 nM
IC50 (VHX): > 10000 nM
IC50 (LAR): > 10000 nM
glucose clearance in glucose tolerance test ([2]; Day 9, at 15, 30, and 60 minutes): significantly enhanced glucose clearance
improvement in glucose disposal (AUC) ([2]; Day 9, vs vehicle): 21%
insulin signaling (phospho-IR, phospho-Akt) (HepG2 hepatocytes): augmented insulin signaling

Reference: US9340574B2, “Inhibitors of protein tyrosine phosphatases” (Indiana University Research and Technology Corporation, priority 2012, dated 2016)
